In PubChem BioAssay (NCI):
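96-well plates; 48 h exposure; 5 concentrations. Endpoints by linear interpolation between flanking doses. Not reached: highest tested concentration assigned. GI50 is the concentration that inhibits growth by half. Definition used: TGI = concentration required for complete inhibition of growth.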

Experiments:
Assay in all cases: inhibition of tumour cell growth, NCI panel, 48 h
M14 melanoma = tested on: M14 melanoma
RXF 393 renal = tested on: RXF 393 renal
SN12C renal = tested on: SN12C renal
BT-549 breast = tested on: BT-549 breast
RPMI-8226 leukemia = tested on: RPMI-8226 leukemia
MDA-MB-435 = tested on: MDA-MB-435
HL-60(TB) leukemia = tested on: HL-60(TB) leukemia
ACHN renal = tested on: ACHN renal
HCT-15 colon = tested on: HCT-15 colon
OVCAR-4 ovarian = tested on: OVCAR-4 ovarian
LOX IMVI melanoma = tested on: LOX IMVI melanoma
HS 578T breast = tested on: HS 578T breast
HOP-62 NSCLC = tested on: HOP-62 NSCLC
HCC-2998 colon = tested on: HCC-2998 colon
A549 NSCLC = tested on: A549 NSCLC
EKVX NSCLC = tested on: EKVX NSCLC
HT29 colon = tested on: HT29 colon
MALME-3M melanoma = tested on: MALME-3M melanoma
SNB-19 CNS = tested on: SNB-19 CNS
DU-145 prostate = tested on: DU-145 prostate
NCI-H23 lung = tested on: NCI-H23 lung
HCT-116 colon = tested on: HCT-116 colon
SW-620 colon = tested on: SW-620 colon
MOLT-4 leukemia = tested on: MOLT-4 leukemia
UO-31 renal = tested on: UO-31 renal
KM12 colon = tested on: KM12 colon
SF-539 CNS = tested on: SF-539 CNS
UACC-62 melanoma = tested on: UACC-62 melanoma
CAKI-1 renal = tested on: CAKI-1 renal
OVCAR-5 ovarian = tested on: OVCAR-5 ovarian
SNB-75 CNS = tested on: SNB-75 CNS
COLO 205 colon = tested on: COLO 205 colon
SF-268 CNS = tested on: SF-268 CNS
NCI-H226 lung = tested on: NCI-H226 lung
MDA-MB-231 breast = tested on: MDA-MB-231 breast
MCF7 breast = tested on: MCF7 breast
TK-10 renal = tested on: TK-10 renal
UACC-257 melanoma = tested on: UACC-257 melanoma
786-0 renal = tested on: 786-0 renal
NCI-H522 lung = tested on: NCI-H522 lung
SK-MEL-28 melanoma = tested on: SK-MEL-28 melanoma
SF-295 CNS = tested on: SF-295 CNS
K-562 leukemia = tested on: K-562 leukemia
SK-MEL-2 melanoma = tested on: SK-MEL-2 melanoma
NCI/ADR-RES ovarian = tested on: NCI/ADR-RES ovarian
A498 renal = tested on: A498 renal
SK-OV-3 ovarian = tested on: SK-OV-3 ovarian
CCRF-CEM leukemia = tested on: CCRF-CEM leukemia
HOP-92 NSCLC = tested on: HOP-92 NSCLC
T-47D breast = tested on: T-47D breast
SR leukemia = tested on: SR leukemia
OVCAR-8 ovarian = tested on: OVCAR-8 ovarian
NCI-H460 lung = tested on: NCI-H460 lung
U251 CNS = tested on: U251 CNS
SK-MEL-5 melanoma = tested on: SK-MEL-5 melanoma
PC-3 prostate = tested on: PC-3 prostate
IGROV1 ovarian = tested on: IGROV1 ovarian
OVCAR-3 ovarian = tested on: OVCAR-3 ovarian

Cn1c(=O)n(CCCO)c(=O)c2c1nc(Oc1cccc(OC(F)(F)F)c1)n2Cc1ccc(Cl)cc1
GI50 (M14 melanoma): 11.8 µM
TGI (M14 melanoma): 27.4 µM
GI50 (RXF 393 renal): 11.2 µM
TGI (RXF 393 renal): 27.3 µM
GI50 (SN12C renal): 13 µM
TGI (SN12C renal): 29.8 µM
GI50 (BT-549 breast): 12.9 µM
TGI (BT-549 breast): 26.4 µM
GI50 (RPMI-8226 leukemia): 10.4 µM
TGI (RPMI-8226 leukemia): 51.3 µM
GI50 (MDA-MB-435): 11.8 µM
TGI (MDA-MB-435): 27.2 µM
GI50 (HL-60(TB) leukemia): 5.78 µM
TGI (HL-60(TB) leukemia): 22.9 µM
GI50 (ACHN renal): 10.7 µM
TGI (ACHN renal): 23.4 µM
GI50 (HCT-15 colon): 10.2 µM
TGI (HCT-15 colon): 28.7 µM
GI50 (OVCAR-4 ovarian): 13.2 µM
TGI (OVCAR-4 ovarian): 30.4 µM
GI50 (LOX IMVI melanoma): 12 µM
TGI (LOX IMVI melanoma): 28.8 µM
GI50 (HS 578T breast): 16.3 µM
TGI (HS 578T breast): 43.4 µM
GI50 (HOP-62 NSCLC): 16 µM
TGI (HOP-62 NSCLC): 33.3 µM
GI50 (HCC-2998 colon): 15 µM
TGI (HCC-2998 colon): 33.9 µM
GI50 (A549 NSCLC): 11.2 µM
TGI (A549 NSCLC): 25.5 µM
GI50 (EKVX NSCLC): 12.4 µM
TGI (EKVX NSCLC): 32.2 µM
GI50 (HT29 colon): 8.01 µM
TGI (HT29 colon): 23.2 µM
GI50 (MALME-3M melanoma): 15.7 µM
TGI (MALME-3M melanoma): 31.6 µM
GI50 (SNB-19 CNS): 18.4 µM
TGI (SNB-19 CNS): 40.1 µM
GI50 (DU-145 prostate): 13.2 µM
TGI (DU-145 prostate): 27.5 µM
GI50 (NCI-H23 lung): 15.8 µM
TGI (NCI-H23 lung): 37.6 µM
GI50 (HCT-116 colon): 5.46 µM
TGI (HCT-116 colon): 19.6 µM
GI50 (SW-620 colon): 13.1 µM
TGI (SW-620 colon): 31.2 µM
GI50 (MOLT-4 leukemia): 5.21 µM
TGI (MOLT-4 leukemia): 21.7 µM
GI50 (UO-31 renal): 3.91 µM
TGI (UO-31 renal): 17.7 µM
GI50 (KM12 colon): 13.5 µM
TGI (KM12 colon): 32.4 µM
GI50 (SF-539 CNS): 12.9 µM
TGI (SF-539 CNS): 26.9 µM
GI50 (UACC-62 melanoma): 13.2 µM
TGI (UACC-62 melanoma): 29.1 µM
GI50 (CAKI-1 renal): 9.05 µM
TGI (CAKI-1 renal): 22.6 µM
GI50 (OVCAR-5 ovarian): 13.1 µM
TGI (OVCAR-5 ovarian): 26.3 µM
GI50 (SNB-75 CNS): 11.8 µM
TGI (SNB-75 CNS): 26.7 µM
GI50 (COLO 205 colon): 12.6 µM
TGI (COLO 205 colon): 30.3 µM
GI50 (SF-268 CNS): 8.54 µM
TGI (SF-268 CNS): 24.5 µM
GI50 (NCI-H226 lung): 16.8 µM
TGI (NCI-H226 lung): 38.4 µM
GI50 (MDA-MB-231 breast): 14.6 µM
TGI (MDA-MB-231 breast): 32.1 µM
GI50 (MCF7 breast): 4.77 µM
TGI (MCF7 breast): 22.2 µM
GI50 (TK-10 renal): 14.7 µM
TGI (TK-10 renal): 30.1 µM
GI50 (UACC-257 melanoma): 17.5 µM
TGI (UACC-257 melanoma): 34.5 µM
GI50 (786-0 renal): 12.5 µM
TGI (786-0 renal): 27.4 µM
GI50 (NCI-H522 lung): 6.06 µM
TGI (NCI-H522 lung): 23.2 µM
GI50 (SK-MEL-28 melanoma): 14.1 µM
TGI (SK-MEL-28 melanoma): 29.5 µM
GI50 (SF-295 CNS): 13 µM
TGI (SF-295 CNS): 28.5 µM
GI50 (K-562 leukemia): 7.72 µM
TGI (K-562 leukemia): 68.8 µM
GI50 (SK-MEL-2 melanoma): 14.7 µM
TGI (SK-MEL-2 melanoma): 32.6 µM
GI50 (NCI/ADR-RES ovarian): 11.4 µM
TGI (NCI/ADR-RES ovarian): 33.4 µM
GI50 (A498 renal): 13.8 µM
TGI (A498 renal): 26.9 µM
GI50 (SK-OV-3 ovarian): 18.1 µM
TGI (SK-OV-3 ovarian): 34 µM
GI50 (CCRF-CEM leukemia): 14.6 µM
TGI (CCRF-CEM leukemia): 39.8 µM
GI50 (HOP-92 NSCLC): 11 µM
TGI (HOP-92 NSCLC): 24.5 µM
GI50 (T-47D breast): 3.78 µM
TGI (T-47D breast): 21 µM
GI50 (SR leukemia): 3.79 µM
TGI (SR leukemia): 18.2 µM
GI50 (OVCAR-8 ovarian): 14.4 µM
TGI (OVCAR-8 ovarian): 37.6 µM
GI50 (NCI-H460 lung): 8.5 µM
TGI (NCI-H460 lung): 23.9 µM
GI50 (U251 CNS): 12.5 µM
TGI (U251 CNS): 29.8 µM
GI50 (SK-MEL-5 melanoma): 16 µM
TGI (SK-MEL-5 melanoma): 30.9 µM
GI50 (PC-3 prostate): 13.7 µM
TGI (PC-3 prostate): 29.3 µM
GI50 (IGROV1 ovarian): 14.2 µM
TGI (IGROV1 ovarian): 31.9 µM
GI50 (OVCAR-3 ovarian): 11.4 µM
TGI (OVCAR-3 ovarian): 25.2 µM
